# Laboratory results from US5639778A, “Indoletetralins having dopaminergic activity” (Pharmacia & Upjohn Company, priority 1995, dated 1997).
# Like-named read-outs stand apart in the source and are kept apart here.
# Legend:
# [1] = system: DOPA accumulation in the striatum (DA synthesis rate); experiment: DOPA accumulation in striatum of reserpine-pretreated rats; assay type: in vivo, rat; settings: for ED50: Rattus norvegicus, sc, 0.5 h, read-out: DOPA ED50 Stri.
# Description: (§1) Effects on DOPA and 5-HTP accumulation in reserpine -
# (§2) The animals were pretreated with reserpine (5 mg/kg, s.c.) 18 hours before the experiment. Test drugs were administered and immediately thereafter the motron activity was measured in photocell motility boxes. The rats were injected with the decarboxylase inhibitor NSD 1015 (100 mg/kg, s.c.) and killed 30 minutes later. The accumulation of DOPA in the striatum, limbic and […] and that of 5-HTP in the limbic forebrain was taken as a measure of the DA and 5-HT synthesis rates, respectively. The accumulation of DOPA in the cortex area was taken as a measure of NA synthesis rate. […] The same theory is valid for 5-HT receptor agonists and antagonists. Dose-response curves were constructed for each compound (4-5 dose levels, n=4) and the half-maximal decrease (ED50) was calculated.
# (§3) P=partial decrease; maximal decrease was not reached at the highest dose (shown in brackets). The % decrease from control is also shown. NT=not tested. [drawing 4]
# [2] = system: DOPA accumulation in the cortex (NA synthesis rate); experiment: DOPA accumulation in cortex of reserpine-pretreated rats; assay type: in vivo, rat; settings: for DOPA ED50 Cortex. (I/P symbol): s.c., number in brackets = highest dose, μmol/kg; for ED50: Rattus norvegicus, sc, 0.5 h, read-out: DOPA ED50 Cortex. (I/P symbol)
# Description: as §1, §2, §3
# [3] = system: 5-HTP accumulation in the limbic forebrain (5-HT synthesis rate); experiment: 5-HTP accumulation in limbic forebrain of reserpine-pretreated rats; assay type: in vivo, rat
# Description: as §1, §2, §3
# [4] = target: T1, dopamine D2 receptor (D2CHO cells) (Homo sapiens, UniProt P14416); experiment: binding experiments using D2CHO cells and Raclopride as the labeled ligand
# T1 construct: expressed in transfected cells; host or cells: CHO cells (D2CHO)
# Source text: *Data from binding experiments using D2CHO cells and Raclopride as the […]
# [5] = target: T2, serotonin 5-HT1A receptor (Rattus norvegicus, UniProt P19327); experiment: in vitro affinity for brain serotonin 5-HT1A receptor sites, 8-OH-DPAT; settings: non-pretreated, read-out: In vitro binding Ki 5HT1A
# T2 construct: from tissue
# T2 sequence (P19327 1-422): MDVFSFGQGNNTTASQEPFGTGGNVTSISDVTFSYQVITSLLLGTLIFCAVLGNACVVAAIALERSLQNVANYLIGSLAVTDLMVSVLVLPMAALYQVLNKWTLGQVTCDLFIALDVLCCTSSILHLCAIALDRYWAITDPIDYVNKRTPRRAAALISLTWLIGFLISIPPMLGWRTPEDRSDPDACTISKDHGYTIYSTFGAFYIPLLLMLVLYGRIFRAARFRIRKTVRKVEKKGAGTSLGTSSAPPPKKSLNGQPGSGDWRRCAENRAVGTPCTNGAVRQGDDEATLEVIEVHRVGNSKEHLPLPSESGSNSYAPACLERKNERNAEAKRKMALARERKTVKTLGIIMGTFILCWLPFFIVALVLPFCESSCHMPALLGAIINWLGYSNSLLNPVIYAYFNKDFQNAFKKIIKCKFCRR
# Source text: (§4) pretreated rats. Also shown are the in vitro affinities for brain
# (§5) dopamine (D2, Spiperone) and serotonin (5-HT1A, 8-OH-DPAT)
# (§6) receptor sites in non-pretreated rats.
# dopamine D2 receptor = target: T3, dopamine D2 receptor (Rattus norvegicus, UniProt P61169); experiment: in vitro affinity for brain dopamine D2 receptor sites, Spiperone; assay type: binding; settings: non-pretreated
# T3 construct: from tissue
# Source text: as §4, §5, §6
# [6] = D2CHO cells, Raclopride as labeled ligand, read-out: In vitro binding Ki D2 (marked *)
# [7] = Rattus norvegicus, sc, 0.5 h, read-out: 5-HTP ED50 Limbic (I/P symbol)
# [8] = read-out: In vitro binding Ki D2-spip.
# T1 sequence (P14416 whole entry): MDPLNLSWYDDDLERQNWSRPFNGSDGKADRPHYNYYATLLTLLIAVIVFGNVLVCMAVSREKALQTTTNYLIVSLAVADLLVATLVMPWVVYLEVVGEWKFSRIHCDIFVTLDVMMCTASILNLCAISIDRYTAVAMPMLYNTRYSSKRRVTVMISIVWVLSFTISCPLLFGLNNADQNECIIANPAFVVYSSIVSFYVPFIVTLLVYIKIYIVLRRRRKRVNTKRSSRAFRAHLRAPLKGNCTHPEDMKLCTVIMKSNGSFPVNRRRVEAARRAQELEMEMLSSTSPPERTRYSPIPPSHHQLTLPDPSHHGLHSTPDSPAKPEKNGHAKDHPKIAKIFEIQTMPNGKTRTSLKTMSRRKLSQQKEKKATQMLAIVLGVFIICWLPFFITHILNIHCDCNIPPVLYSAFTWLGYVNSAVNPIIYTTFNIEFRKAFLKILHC
# T3 sequence (P61169 whole entry): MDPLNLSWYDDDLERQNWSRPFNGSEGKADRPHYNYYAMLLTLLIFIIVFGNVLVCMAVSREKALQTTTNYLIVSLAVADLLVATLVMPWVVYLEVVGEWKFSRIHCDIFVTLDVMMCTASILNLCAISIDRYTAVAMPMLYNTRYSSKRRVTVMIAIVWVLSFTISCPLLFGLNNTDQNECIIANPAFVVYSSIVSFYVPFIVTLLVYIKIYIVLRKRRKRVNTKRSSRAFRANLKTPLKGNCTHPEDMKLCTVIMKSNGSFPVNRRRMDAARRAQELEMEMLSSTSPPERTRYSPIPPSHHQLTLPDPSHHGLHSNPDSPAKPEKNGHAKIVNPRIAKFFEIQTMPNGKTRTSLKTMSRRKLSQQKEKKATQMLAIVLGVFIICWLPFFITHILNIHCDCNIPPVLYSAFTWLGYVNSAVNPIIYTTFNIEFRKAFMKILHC
compound,measurement,setting,value
"CCCN(CCC)[C@H]1CCc2c(ccc3[nH]ccc23)[C@H]1C (relative stereo) [Example 15, cis-(6-Methyl-6,7,8,9-tetrahydro-3H-benzo[e]-indol-7-yl)-dipropylamine]",DOPA Stri. % decrease from control,[1]; highest dose 50 μmol/kg s.c.,35%
same,DOPA Cortex. % decrease from control,[2]; highest dose 50 μmol/kg s.c.,88%
same,5-HTP Limbic % decrease from control,[3]; highest dose 50 μmol/kg s.c.,52%
same,Ki,[4]; [6],164 nM
same,Ki,[5],124 nM
"CCCN(CCC)[C@H]1CCc2c(ccc3[nH]cc(C=O)c23)[C@H]1C (relative stereo) [Example 16, cis-7-Dipropylamino-6-methyl-6,7,8,9-tetrahydro-3H-benzo[e]-indole-1-carbaldehyde]",DOPA Stri. % decrease from control,[1]; highest dose 50 μmol/kg s.c.,36%
same,DOPA ED50 Cortex. (I/P symbol),[2],I(50)
same,ED50,[3]; [7],50 µmol/kg
same,Ki,[4]; [6],924 nM
"CCCN(CCC)C1CCc2c(ccc3[nH]ccc23)C1 (single isomer, unassigned; (+)) [7A(+), (+)-Dipropyl-(6,7,8,9-tetrahydro-benzo[e]indol-7-yl)-amine, reference compound]",ED50,[1],0.12 µmol/kg
same,DOPA Cortex. % decrease from control,[2]; highest dose 12.5 μmol/kg s.c.,67%
same,5-HTP Limbic % decrease from control,[3]; highest dose 12.5 μmol/kg s.c.,80%
same,Ki,dopamine D2 receptor; In vitro binding Ki D2-spip.,35 nM
"CCCN(CCC)C1CCc2c(ccc3[nH]cc(C=O)c23)C1 (single isomer, unassigned; (+)) [8(+), (+)-7-Dipropylamino-6,7,8,9-tetrahydro-3H-benzo[e]indole-1-carbaldehyde]",DOPA Stri. % decrease from control,[1]; highest dose 0.2 μmol/kg s.c.,60%
same,ED50,[2],0.2 µmol/kg
same,ED50,[3]; [7],0.2 µmol/kg
"CCCN(CCC)C1CCc2c(ccc3[nH]ccc23)C1 (single isomer, unassigned; (-)) [7A(-), (-)-Dipropyl-(6,7,8,9-tetrahydro-benzo[e]indol-7-yl)-amine, reference compound]",DOPA Stri. % decrease from control,[1]; highest dose 25 μmol/kg s.c.,31%
same,DOPA Cortex. % decrease from control,[2]; highest dose 25 μmol/kg s.c.,73%
same,5-HTP Limbic % decrease from control,[3]; highest dose 25 μmol/kg s.c.,68%
same,Ki,dopamine D2 receptor; [8],257 nM
same,Ki,[5],1450 nM
"CCCN(CCC)C1CCc2c(ccc3c2NC(=O)C3=O)C1 (stereo not drawn) [Example 1, 7-Di-n-propylamino-6,7,8,9-tetrahydro-1H-benzo[g]indole-2,3-dione]",DOPA Stri. % decrease from control,[1]; highest dose 50 μmol/kg s.c.,78%
same,highest dose tested (ED50 not reached),"[3]; Rattus norvegicus, sc, 0.5 h, s.c., number in brackets = highest dose, μmol/kg, read-out: 5-HTP ED50 Limbic (I/P symbol)",50 µmol/kg
same,Ki,[4]; [6],3520 nM
same,Ki,[5],9930 nM
"CCCN(CCC)C1CCc2c(ccc3cc[nH]c23)C1 (stereo not drawn) [Example 2, Di-n-propyl-(6,7,8,9-tetrahydro-1H-benzo[g]indol-7yl)amine]",DOPA Stri. % decrease from control,[1]; highest dose 50 μmol/kg s.c.,48%
same,5-HTP Limbic % decrease from control,[3]; highest dose 50 μmol/kg s.c.,61%
same,Ki,dopamine D2 receptor; [8],320 nM
same,Ki,[5],1120 nM
"CCCN(CCC)C1CCc2c(ccc3c2NC(=O)C3)C1 (stereo not drawn) [Example 4, 7-Di-n-propylamino-1,3,6,7,8,9-hexahydro-1H-benzo[g]indole-2-one]",ED50,"[3]; Rattus norvegicus, sc, 0.5 h, s.c., half-maximal decrease, reserpine-pretreated rats, read-out: 5-HTP ED50 Limbic",5.8 µmol/kg
same,Ki,dopamine D2 receptor; [8],15900 nM
same,Ki,[5],25300 nM
"CCCN(CCC)C1COc2c(ccc3cc[nH]c23)C1 (stereo not drawn) [Example 5, Di-n-propyl-(1,6,7,8-tetrahydro-9-oxa-1-azacyclopenta[a]naphthylenee-7-yl)amine]",DOPA Stri. % decrease from control,[1]; highest dose 3.1 μmol/kg s.c.,26%
same,DOPA ED50 Cortex. (I/P symbol),[2],I(50)
same,5-HTP Limbic % decrease from control,[3]; highest dose 50 μmol/kg s.c.,62%
same,Ki,dopamine D2 receptor; [8],270 nM
same,Ki,[5],178 nM
"CCCN(CCC)C1CCc2cc3[nH]ccc3cc2C1 (stereo not drawn) [Example 7, Di-n-propyl-(5,6,7,8-tetrahydro-1H-benzo[f]indol-6-yl)amine]",DOPA Stri. % decrease from control,[1]; highest dose 50 μmol/kg s.c.,48%
same,ED50,[3]; [7],50 µmol/kg
same,Ki,dopamine D2 receptor; [8],4200 nM
same,Ki,[5],340 nM
"CCCN(CCC)C1CCc2c(ccc3[nH]ccc23)C1 (stereo not drawn) [Example 7A, Di-n-propyl-(6,7,8,9-tetrahydro-3H-benzo[e]indol-7-yl)amine, reference compound]",ED50,[1],0.3 µmol/kg
same,ED50,[2],12.5 µmol/kg
same,5-HTP Limbic % decrease from control,[3]; highest dose 3.1 μmol/kg s.c.,72%
same,Ki,dopamine D2 receptor; In vitro binding Ki D2-spip.,50 nM
same,Ki,[5],500 nM
"CCCN(CCC)C1CCc2c(ccc3[nH]cc(C=O)c23)C1 (stereo not drawn) [Example 8, 7-Di-n-propylamino-6,7,8,9-tetrahydro-3H-benzo [e]indole-1-carbaldehyde]",ED50,[1],0.015 µmol/kg
same,DOPA Cortex. % decrease from control,[2]; highest dose 0.2 μmol/kg s.c.,57%
same,ED50,[3]; [7],50 µmol/kg
same,Ki,dopamine D2 receptor; In vitro binding Ki D2-spip.,16 nM
same,Ki,[5],2600 nM
"CCCN(CCC)C1CCc2cc3[nH]cc(C=O)c3cc2C1 (stereo not drawn) [Example 9, 6-Di-n-propylamino-5,6,7,8-tetrahydro-1H-benzo [f]indole-3-carbaldehyde]",DOPA Stri. % decrease from control,[1]; highest dose 12.5 μmol/kg s.c.,37%
same,DOPA Cortex. % decrease from control,[2]; highest dose 12.5 μmol/kg s.c.,85%
same,ED50,[3]; [7],12.5 µmol/kg
same,Ki,[4]; [6],278 nM
"CCCN(CCC)C1CCc2c(ccc3[nH]cc(C#N)c23)C1 (stereo not drawn) [Example 10, 7-Di-n-propylamino-6,7,8,9-tetrahydro-3H-benzo[e]indole-1-carbonitrile]",ED50,[1],0.004 µmol/kg
same,DOPA Cortex. % decrease from control,[2]; highest dose 3.1 μmol/kg s.c.,79%
same,ED50,[3]; [7],3.1 µmol/kg
same,Ki,[4],10.1 nM
"CCCN(CCC)C1CCc2c(ccc3ccoc23)C1 (stereo not drawn) [Example 17, Di-n-propyl-(6,7,8,9-tetrahydronaphtho[1,2-b]furan-7-yl)-amine]",ED50,[1],1 µmol/kg
same,DOPA Cortex. % decrease from control,[2]; highest dose 33.3 μmol/kg s.c.,79%
same,ED50,[3]; [7],33.3 µmol/kg
same,Ki,[4],205 nM
